One experiment addresses Carbonic anhydrase 12 (Homo sapiens, UniProt O43570). Nature of the experiment: Inhibition of recombinant human carbonic anhydrase 12 incubated for 10 mins prior to testing measured for 5 to 10 secs by phenol red-based stopped-flow CO2 hydration assay.
For the next experiment, the target named is Carbonic anhydrase 1 (Homo sapiens, UniProt P00915). Nature of the experiment: Inhibition of recombinant human carbonic anhydrase 1 incubated for 10 mins prior to testing measured for 5 to 10 secs by phenol red-based stopped-flow CO2 hydration assay.
Chain of Carbonic anhydrase 1 (P00915 whole entry): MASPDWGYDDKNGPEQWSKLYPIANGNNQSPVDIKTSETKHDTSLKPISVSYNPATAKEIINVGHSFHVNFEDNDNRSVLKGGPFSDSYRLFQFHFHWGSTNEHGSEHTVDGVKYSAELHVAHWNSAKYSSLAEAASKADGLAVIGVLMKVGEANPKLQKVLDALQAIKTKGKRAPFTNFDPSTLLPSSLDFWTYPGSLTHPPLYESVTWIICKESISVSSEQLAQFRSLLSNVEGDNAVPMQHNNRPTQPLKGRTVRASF
For another experiment, the target named is Carbonic anhydrase 9 (Homo sapiens, UniProt Q16790). Nature of the experiment: Inhibition of recombinant human carbonic anhydrase 9 incubated for 10 mins prior to testing measured for 5 to 10 secs by phenol red-based stopped-flow CO2 hydration assay.
Another experiment has as its target Carbonic anhydrase 2 (Homo sapiens, UniProt P00918). Nature of the experiment: Inhibition of recombinant human carbonic anhydrase 2 incubated for 10 mins prior to testing measured for 5 to 10 secs by phenol red-based stopped-flow CO2 hydration assay.

Here are results for 20 compounds from ChEMBL document CHEMBL4680240, “Tail approach synthesis of novel benzenesulfonamides incorporating 1,3,4-oxadiazole hybrids as potent inhibitor of carbonic anhydrase I, II, IX, and XII isoenzymes” (Eur J Med Chem, 2020).

Chain of Carbonic anhydrase 12 (O43570 whole entry): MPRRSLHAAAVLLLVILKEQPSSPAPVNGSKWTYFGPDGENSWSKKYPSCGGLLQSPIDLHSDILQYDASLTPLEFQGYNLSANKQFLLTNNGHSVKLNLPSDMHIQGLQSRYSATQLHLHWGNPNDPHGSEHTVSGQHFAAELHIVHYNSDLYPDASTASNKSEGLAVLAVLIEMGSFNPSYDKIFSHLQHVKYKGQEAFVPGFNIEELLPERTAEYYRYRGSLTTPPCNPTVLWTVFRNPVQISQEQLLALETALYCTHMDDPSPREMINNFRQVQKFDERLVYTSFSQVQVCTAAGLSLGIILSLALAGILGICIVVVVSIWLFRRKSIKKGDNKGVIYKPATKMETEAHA

On to `NS(=O)(=O)c1ccc(-c2nnc(SCC(=O)Nc3ccc([N+](=O)[O-])cc3)o2)cc1`, for which the Ki on Carbonic anhydrase 12 is 737 nM; at Carbonic anhydrase 1, 762 nM; on Carbonic anhydrase 9 it was 256 nM; at Carbonic anhydrase 2, 73.1 nM.

Take `NS(=O)(=O)c1ccc(-c2nnc(SCC(=O)c3ccc(Br)cc3)o2)cc1`: the Ki on Carbonic anhydrase 12 came out at 636 nM; on Carbonic anhydrase 1, 617 nM; on Carbonic anhydrase 9 it was 1750 nM; on Carbonic anhydrase 2, 67 nM.

`COc1ccc(NC(=O)CSc2nnc(-c3ccc(S(N)(=O)=O)cc3)o2)cc1`: the Ki on Carbonic anhydrase 12 worked out at 266 nM; at Carbonic anhydrase 1, 2920 nM; at Carbonic anhydrase 9 it was 29 nM; at Carbonic anhydrase 2 it was 53.6 nM.

`COc1cccc(C(=O)CSc2nnc(-c3ccc(S(N)(=O)=O)cc3)o2)c1`: the inhibition constant Ki on Carbonic anhydrase 12 stood at 492 nM; at Carbonic anhydrase 1, 470 nM; on Carbonic anhydrase 9, 1330 nM; at Carbonic anhydrase 2, 79.6 nM.

Take `NS(=O)(=O)c1ccc(-c2nnc(SCC(=O)Nc3ccc(Br)cc3)o2)cc1`: the Ki was 751 nM on Carbonic anhydrase 12, 3900 nM on Carbonic anhydrase 1, 671 nM at Carbonic anhydrase 9 and 848 nM on Carbonic anhydrase 2.

For `NS(=O)(=O)c1ccc(-c2nnc(SCC(=O)c3ccccc3)o2)cc1`, the Ki at Carbonic anhydrase 12 worked out at 265 nM; at Carbonic anhydrase 1, 1360 nM; at Carbonic anhydrase 9, 757 nM; at Carbonic anhydrase 2, 347 nM.

Consider `NS(=O)(=O)c1ccc(-c2nnc(SCC(=O)c3ccc(F)cc3)o2)cc1`, for which the inhibition constant Ki is 2240 nM on Carbonic anhydrase 12, 744 nM on Carbonic anhydrase 1, 1980 nM on Carbonic anhydrase 9 and 69.4 nM at Carbonic anhydrase 2.

`Cc1ccc(NC(=O)CSc2nnc(-c3ccc(S(N)(=O)=O)cc3)o2)cc1`: the Ki is 263 nM on Carbonic anhydrase 12, 739 nM on Carbonic anhydrase 1, 74.1 nM at Carbonic anhydrase 9 and 78.7 nM on Carbonic anhydrase 2.

As to `NS(=O)(=O)c1ccc(-c2nnc(SCC(=O)Nc3ccc(F)cc3)o2)cc1`, the Ki at Carbonic anhydrase 12 turned out to be 588 nM; at Carbonic anhydrase 1, 711 nM; on Carbonic anhydrase 9, 163 nM; on Carbonic anhydrase 2, 85.7 nM.

Turning to `COc1ccc(C(=O)CSc2nnc(-c3ccc(S(N)(=O)=O)cc3)o2)cc1`, the Ki was 3620 nM on Carbonic anhydrase 12, 3810 nM on Carbonic anhydrase 1, 449 nM on Carbonic anhydrase 9 and 158 nM at Carbonic anhydrase 2.

`COc1cccc(NC(=O)CSc2nnc(-c3ccc(S(N)(=O)=O)cc3)o2)c1`: the Ki at Carbonic anhydrase 12 was determined as 690 nM; on Carbonic anhydrase 1 it was 673 nM; at Carbonic anhydrase 9 it was 53.1 nM; on Carbonic anhydrase 2 it was 69.8 nM.

Take `NS(=O)(=O)c1ccc(-c2nnc(SCC(=O)Nc3cccc([N+](=O)[O-])c3)o2)cc1`: the Ki is 257 nM at Carbonic anhydrase 12, 73.2 nM at Carbonic anhydrase 1, 16.3 nM on Carbonic anhydrase 9 and 7.9 nM on Carbonic anhydrase 2.

For the compound `NS(=O)(=O)c1ccc(-c2nnc(SCC(=O)c3ccc(Cl)cc3)o2)cc1`, the Ki at Carbonic anhydrase 12 came out at 840 nM; on Carbonic anhydrase 1 it was 595 nM; on Carbonic anhydrase 9, 1320 nM; at Carbonic anhydrase 2, 67.3 nM.

Turning to `NS(=O)(=O)c1ccc(-c2nnc(SCC(=O)c3cccc(Cl)c3)o2)cc1`, the Ki on Carbonic anhydrase 12 was 383 nM; on Carbonic anhydrase 1, 544 nM; on Carbonic anhydrase 9, 1250 nM; at Carbonic anhydrase 2, 59.2 nM.

Regarding `NS(=O)(=O)c1ccc(-c2nnc(SCC(=O)c3ccc([N+](=O)[O-])cc3)o2)cc1`, the Ki was 294 nM on Carbonic anhydrase 12, 70.7 nM on Carbonic anhydrase 1, 633 nM at Carbonic anhydrase 9 and 29.5 nM at Carbonic anhydrase 2.

As to `NS(=O)(=O)c1ccc(-c2nnc(SCC(=O)Nc3cccc(Cl)c3)o2)cc1`, the Ki is 400 nM on Carbonic anhydrase 12, 501 nM at Carbonic anhydrase 1, 50.8 nM at Carbonic anhydrase 9 and 81.9 nM on Carbonic anhydrase 2.

Regarding `NS(=O)(=O)c1ccc(-c2nnc(SCC(=O)Nc3ccc(Cl)cc3)o2)cc1`, the inhibition constant (Ki) at Carbonic anhydrase 12 worked out at 838 nM; on Carbonic anhydrase 1, 2080 nM; at Carbonic anhydrase 9, 757 nM; at Carbonic anhydrase 2, 96 nM.

On to `NS(=O)(=O)c1ccc(-c2nnc(SCC(=O)c3cccc([N+](=O)[O-])c3)o2)cc1`, for which the Ki on Carbonic anhydrase 12 was found to be 577 nM; on Carbonic anhydrase 1 it was 669 nM; on Carbonic anhydrase 9, 566 nM; on Carbonic anhydrase 2, 58.5 nM.

`Cc1ccc(C(=O)CSc2nnc(-c3ccc(S(N)(=O)=O)cc3)o2)cc1`: the Ki was determined as 231 nM at Carbonic anhydrase 12, 3320 nM at Carbonic anhydrase 1, 201 nM on Carbonic anhydrase 9 and 148 nM at Carbonic anhydrase 2.

For `NS(=O)(=O)c1ccc(-c2nnc(SCC(=O)Nc3ccccc3)o2)cc1`, the Ki on Carbonic anhydrase 12 was 366 nM; at Carbonic anhydrase 1 it was 542 nM; on Carbonic anhydrase 9, 111 nM; at Carbonic anhydrase 2, 61.1 nM.

As a reminder, the Ki is the dissociation constant of the complex between target and ligand, obtained from inhibition or displacement.
